Reference: patent US12516293B2, “Reagents and methods with Wnt agonists and bioactive lipids for generating and expanding cardiomyocytes” (The Board of Trustees of the Leland Stanford Junior …, priority 2018, dated 2026)

Key:
Format in all cases: cell-based, human
TCF/LEF [1] = experiment: TOPFlash TCF/LEF luciferase reporter in hiPSCs; conditions: treatment alone, 2 hours
Experimental: and day 30 hiPSC-CMs were replated in 96-well plates and cultured for 2-3 days before transfection with Lipofectamine (Invitrogen) and TOPFlash (TCF/LEF) luciferase Wnt signaling reporter plasmid (M50, Addgene) at 100 ng/well. After 48 hours, media was changed, and cells were subjected to different treatments for 2 hours before lysis and luciferase (Promega) luminescence was measured with a standard luminescence plate reader. […] It was studied whether S1P/LPA treatment of undifferentiated hiPS cells, either alone or in combination with CHIR, could increase the level of nuclear β-catenin. […] To examine whether the increase in nuclear β-catenin level results in an activation of Wnt signaling at the transcriptional level, hiPSCs were transfected with the previously described TOPFlash luciferase reporter plasmid^23 ([…] et al. 2003). This system provides a proportionate visualization of Wnt transcriptional activity using bioluminescence. Subsequently, the cells were treated with dimethyl sulfoxide (DMSO), CHIR, S1P/LPA, or a combination of S1P/LPA and CHIR. […] When S1P/LPA was combined with CHIR, the TCF/LEF-luciferase activity was further increased to more than 60-fold compared with DMSO control (FIG. 16C).

hiPSC-CMs [2] = experiment: Sarcomere alignment and contractility on micropatterns
Experimental: Cells were plated on soft substrates with micropatterned proteins on top. After 3-6 days of culture high resolution movies (Sony Microscopy) were recorded for at least 10 individual cells per group and motion velocity analysis was processed digitally. After recordings, cells were fixed and used for immunohistochemistry and confocal imaging. Sarcomere alignment was quantified with Image J software. CM maturation is accompanied by the formation of highly structured sarcomere, bi- or multinucleation, and cell cycle exit (Bassat et al., 2017; Bersell et al., 2009; Senyo et al., 2014; Uygur and Lee, 2016). […] To address this, age-matched hiPSC-CMs exposed to media containing DMSO (CTR) were compared to ones that have undergone 3 passages in media containing 2.0 μM CHIR using various phenotypic assays of CM function. To assess sarcomere alignment, CHIR and CTR hiPSC-CMs on 7:1 aspect ratio micropatterns (Ribeiro et al., 2015) were cultured and immunostained with TnT and sarcomeric actinin antibodies.

hiPSC-CMs [3] = experiment: Motion-derived contractility of day 30 hiPSC-CMs; conditions: day 30 hiPSC-CMs vs control
Source text: These studies illustrate an additional role for S1P/LPA to regulate cell cycle activity in well-differentiated hiPSC-CMs and synergize with β-catenin signaling to increase hiPSC-CM proliferation.

hiPSC-CMs [4] = experiment: Real-time PCR / immunostaining of cardiac gene expression in hiPSC-CMs; conditions: CHIR treatment, qPCR
Experimental: For quantitative analysis of gene expression, RNA was extracted with a lysis buffer (Qiagen) from hiPSC-CMs and stored at −80° C. Total RNA from each sample was purified from cell lysate using a RNA purification kit (Qiagen). cDNA was made using iScript cDNA synthesis kit (BioRad). Quantitative PCR was performed using a 96-well thermocycler system (Biorad) with SYBR Green substrate (Affymetrix) for 40 cycles. All primers sequences were obtained from the PrimerBank (Massachusetts General Hospital/Harvard Medical School) online database. […] Day 12 hiPSC-CMs were cultured in CHIR continuously for 2 months with serial passaging followed by CHIR withdrawal for an additional month.

[5] = test system: AKT1/2/3 and other kinases; experiment: Phospho-kinase array and western blot in CHIR-treated hiPSC-CMs
Experimental: Kinase phosphorylation levels were screened with a Proteome Profiler Human Phospho-Kinase Array Kit (R&D Systems) containing 43 human kinases and total amounts of 2 proteins. Validation was performed with regular western blotting. Total protein expression was measured with a gel imager (Biorad) and processed with pixel intensity software (Biorad).

hiPSC-CMs [6] = experiment: Single cell RNA sequencing of day 12 hiPSC-CMs
Experimental: For the single cell gene expression replated hiPSC-CMs were treated at day 12 with DMSO, CHIR99021 or C59 for 24 hours. At day 13 cells were digested with TrypLE Select Enzyme for about 5 minutes and dissociated with gentle pipetting. […] Single cell analysis was performed with the Loupe Cell Browser software. To investigate the global transcriptional changes of hiPSC-CMs in response to gain and loss of Wnt signaling, single cell RNA sequencing was performed in day 12 hiPSC-CMs treated for 24 hours with either DMSO (CTR), CHIR or C59.

hiPSC-CMs [7] = experiment: Cell cycle activity in well-differentiated hiPSC-CMs (ki67, pHH3, cell count)
Experimental: To address this, well-differentiated hiPSC-CMs were generated (e.g. day 30 or later) using chemically-defined protocols (Burridge et al. 2014; Churko et al. 2013; Sharma et al. 2015) (Movie S1) and treated them with S1P/LPA or CHIR or both (FIG. 18A). The presence of S1P/LPA receptors in these cells was first validated (FIG. 21). Immunofluorescence staining was then performed for ki67, a marker of cell cycle activity, and phospho Histone H3 (pHH3), a mitosis marker, in cardiac troponin T (TnT) positive cells.

TCF/LEF [8] = experiment: TOPFlash TCF/LEF luciferase reporter in day 12 hiPSC-CMs; conditions: P0 hiPSC-CMs, 24 hours
Experimental: Day 12 hiPSC-CMs were transfected for 48h with a TCF reporter plasmid (TOPflash M50, Addgene) or the mutant reporter plasmid (TOPflash M51, Addgene) and the use of Lipofectamine 3000 (Invitrogen). 72h after transfection cells were treated with various small molecules for 24h. Cells were lysed and mixed with luciferase substrate (Promega) and the firefly luciferase expression was measured with a 96-well micro plate reader (Fisher).

hiPSC-CMs [9] = experiment: hiPSC-CM expansion upon serial passaging

## Cc1c[nH]c(-c2cnc(NCCNc3ccc(C#N)cn3)nc2-c2ccc(Cl)cc2Cl)n1 [CHIR99021]
TCF/LEF [1]
  TCF/LEF-luciferase activity, increase vs DMSO control: ~40 fold
hiPSC-CMs [2]; 3 passages in 2.0 μM CHIR vs age-matched CTR
  sarcomere alignment and organization: markedly reduced alignment and organization of sarcomeres
hiPSC-CMs [2]; CHIR-treated vs CTR cells
  contractile force generation: decreased force generation
hiPSC-CMs [3]
  beating frequency or contractile force generation: no significant difference
hiPSC-CMs [4]
  Wnt signaling target gene expression (Axin2, LEF, CCND2): induction of Wnt signaling target gene expression
  markers of hiPSC-CM maturation (MYL2, MYH7, MYOM1): down-regulated
[5]; CHIR
  phosphorylation of HSP27 and p70S6K: increased phosphorylation
  phosphorylation of growth suppressor P27: subtle increase
[5]; screen of 43 kinases, CHIR
  AKT1/2/3 phosphorylation at T308: significant upregulation
[5]; western blot, CHIR vs DMSO
  active form of AKT (pAKT T308): rapidly increased
hiPSC-CMs [6]; 24 hours CHIR
  cardiac progenitor markers Isl1 and MESP1/2 expression: did not result in increased expression
hiPSC-CMs [6]; 24 hours, CHIR vs CTR or C59
  Wnt signaling target genes and cardiogenic transcription factors expression: highly upregulated
  mature cardiac genes expression: dramatically downregulated
hiPSC-CMs [7]; treatment alone, 48 hours
  number of hiPSC-CMs: increase in cell number
hiPSC-CMs [7]; two-day treatment
  number of bi- or multinucleated cardiomyocytes: did not increase the number of bi- or multinucleated cardiomyocytes
TCF/LEF [8]
  TCF/LEF activity (TOPFlash): dramatic increase in TCF/LEF activity
hiPSC-CMs [9]; 2.0 μM CHIR from day 12, serial passaging
  increase in the total cell number: greater than 100 fold
hiPSC-CMs [9]; 2.0 μM CHIR from day 12, serial passaging, TnT+ cells vs DMSO
  increase in CM number: greater than 100 fold
hiPSC-CMs [9]; 2.0 μM CHIR, Caspase 3 staining
  cell death: without notable cell death
hiPSC-CMs [9]; 2.0 μM CHIR, DMSO cells cease to proliferate after first passage
  number of passages possible: up to 5 times
hiPSC-CMs [9]; CHIR treatment with serial passaging
  hiPSC-CMs generated from 2 million day 12 hiPSC-CMs: 300-900 million
hiPSC-CMs [9]; CHIR-treated early passage hiPSC-CMs
  time to confluence after passaging: 5 to 7 days
hiPSC-CMs [9]; expansion of beating hiPSC-CMs
  TnT purity during expansion: > 95%
hiPSC-CMs [9]; flow cytometry, vs DMSO which decreased
  CM purity with each passage (TnT+): maintain, if not slightly enrich
